Read-outs that look alike come from different tables or passages of the source.
Tests used:
SOS1 = SOS1 (Homo sapiens (Human), UniProt Q07889); assay: Ras-SOS interaction assay (HTRF), K-Ras G13D utilized; type: binding; conditions: K-Ras G13D
[1] = system: NCI-H1975 (ATCC CRL-5908) cell line comprising an EGFR T790M L858R double mutation; assay: EGFR-SOS cellular inhibition assay (CellTiter-Glo cell proliferation); type: cell-based; conditions: Homo sapiens
Procedure: A CellTiter-Glo (CTG) luminescent based assay (Promega) is used to assess growth of the cells, as a measurement of the ability of the compounds herein to inhibit EGFR signaling in the cells. […] The day after plating, cells are treated with a dilution series (e.g., a 9 point 3-fold dilution series) of the compounds herein (e.g., approximately 125 μL final volume per well).

[2] = 120 h, NCI-H1975 cell proliferation, approximately 5 days, read-out: H1975 IC50
[3] = read-out: IC50 value against SOS1
[4] = NCI-H1975, EGFR T790M L858R double mutation, read-out: IC50 in inhibiting growth of NCI-H1975 cell line

Sequence of SOS1 (Q07889 564-1049): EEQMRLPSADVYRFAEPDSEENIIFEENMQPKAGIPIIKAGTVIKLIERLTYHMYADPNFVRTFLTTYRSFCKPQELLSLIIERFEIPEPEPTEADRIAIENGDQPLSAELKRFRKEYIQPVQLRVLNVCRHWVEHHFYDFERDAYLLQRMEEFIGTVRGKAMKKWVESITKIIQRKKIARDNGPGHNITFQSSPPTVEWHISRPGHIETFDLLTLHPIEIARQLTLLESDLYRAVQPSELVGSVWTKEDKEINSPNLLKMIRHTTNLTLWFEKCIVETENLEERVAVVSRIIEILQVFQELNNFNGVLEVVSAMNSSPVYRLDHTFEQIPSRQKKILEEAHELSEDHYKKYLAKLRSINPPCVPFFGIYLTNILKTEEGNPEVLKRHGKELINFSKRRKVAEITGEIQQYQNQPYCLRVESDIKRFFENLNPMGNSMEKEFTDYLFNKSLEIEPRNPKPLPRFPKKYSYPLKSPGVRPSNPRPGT

Structure (SMILES) | IC50 (SOS1; read-out: SOS1 IC50) [nM] | IC50 [1, 2] [nM] | IC50 (SOS1; [3]) [nM] | IC50 [1, 4] [nM]
C[C@@H]1CCCNC(=O)Cn2c(=O)c(C3(C#N)CC3)cc3c(ncnc32)N[C@H](C)c2cccc(c2F)C(F)(F)C2CCN1CC2 [Compound 72, 1-((4R,13R)-3^2,2,2-trifluoro-4,13-dimethyl-6^7,8-dioxo-6^7,6^8-dihydro-5,9-diaza-6(4,8)-pyrido[2,3-d]pyrimidina-1(4,1)-piperidina-3(1,3)-benzenacyclotridecaphane-6^6-yl)cyclopropane-1-carbonitrile] | < 100 | < 1000 | – | –
COc1cc2nc(C)nc3c2cc1OCCOCCOCCOCCOCCNCc1ccc(F)cc1C1=CC=C(S1)C(C)N3 (centres unmarked) [Compound 138, 1^5-fluoro-5^7-methoxy-5^2,3-dimethyl-6,9,12,15,18-pentaoxa-4,21-diaza-5(4,6)-quinazolina-2(2,5)-thiophena-1(1,2)-benzenacyclodocosaphane] | < 100 | < 1000 | < 50 | –
CC(C)N1CCN(c2cc3c4ncnc3n(c2=O)CCCCCCN2CCC(CC2)CC(F)(F)c2cccc(c2F)[C@@H](C)N4)CC1 [Compound 16, (3R)-4^2,5,5-trifluoro-1^6-(4-isopropylpiperazin-1-yl)-3-methyl-1^7,1^8-dihydro-2-aza-1(4,8)-pyrido[2,3-d]pyrimidina-7(4,1)-piperidina-4(1,3)-benzenacyclotridecaphan-1^7-one] | < 100 | < 1000 | – | –
C[C@H]1Nc2ncnc3c2cc(C2CCS(=O)(=O)CC2)c(=O)n3CCCCCCN2CCC(CC2)CC(F)(F)c2cccc1c2F [Compound 156, (3R)-1^6-(1,1-dioxidothiomorpholino)-4^2,5,5-trifluoro-3-methyl-1^7,1^8-dihydro-2-aza-1(4,8)-pyrido[2,3-d]pyrimidina-7(4,1)-piperidina-4(1,3)-benzenacyclotridecaphan-1^7-one] | < 100 | < 1000 | – | –
CC(C)N1CCN(c2cc3c4ncnc3n(c2=O)CCOCCCCN2CCC(CC2)CC(F)(F)c2cccc(c2F)[C@@H](C)N4)CC1 [Compound 135, (3R)-4^2,5,5-trifluoro-1^6-(4-isopropylpiperazin-1-yl)-3-methyl-1^7,1^8-dihydro-12-oxa-2-aza-1(4,8)-pyrido[2,3-d]pyrimidina-7(4,1)-piperidina-4(1,3)-benzenacyclotetradecaphan-1^7-one] | < 100 | < 1000 | – | –
Cc1nc2c3cc(C4(C#N)CC4)c(=O)n(c3n1)CC/C=C\COCC(F)(F)c1cccc(c1F)[C@@H](C)N2 [Compound 3, 1-((3R,Z)-4^2,5,5-trifluoro-1^2,3-dimethyl-1^7-oxo-1^7,1^8-dihydro-7-oxa-2-aza-1(4,8)-pyrido[2,3-d]pyrimidina-4(1,3)-benzenacyclododecaphan-9-en-1^6-yl)cyclopropane-1-carbonitrile] | 100 to 5000 | 1000 to 10000 | – | –
C[C@H]1Nc2ncnc3c2cc(C2(C#N)CC2)c(=O)n3CC(=O)N(C)CCCCN2CCC(CC2)C(F)(F)c2cccc1c2 [Compound 52, 1-((4R)-2,2-difluoro-4,9-dimethyl-6^7,8-dioxo-6^7,6^8-dihydro-5,9-diaza-6(4,8)-pyrido[2,3-d]pyrimidina-1(4,1)-piperidina-3(1,3)-benzenacyclotridecaphane-6^6-yl)cyclopropane-1-carbonitrile] | < 100 | < 1000 | – | –
C[C@H]1Nc2ncnc3c2cc(N2CCN(C4CCOCC4)CC2)c(=O)n3CCCCCCCN2CCC(CC2)C(F)(F)c2cccc1c2F [Compound 19, (4R)-3^2,2,2-trifluoro-4-methyl-6^6-(4-(tetrahydro-2H-pyran-4-yl)piperazin-1-yl)-6^7,68-dihydro-5-aza-6(4,8)-pyrido[2,3-d]pyrimidina-1(4,1)-piperidina-3(1,3)-benzenacyclotridecaphan-6^7-one] | < 100 | < 1000 | – | –
C[C@H]1Nc2ncnc3c2cc(C2(C#N)CC2)c(=O)n3CC(=O)NCCC[C@H](C)N2CCC(CC2)C(F)(F)c2cccc1c2F [Compound 98, 1-((4R,13S)-3^2,2,2-trifluoro-4,13-dimethyl-6^7,8-dioxo-6^7,6^8-dihydro-5,9-diaza-6(4,8)-pyrido[2,3-d]pyrimidina-1(4,1)-piperidina-3(1,3)-benzenacyclotridecaphane-6^6-yl)cyclopropane-1-carbonitrile] | < 100 | < 1000 | – | –
CC(C)N1CCC(c2cc3c4ncnc3n(c2=O)CCCCCCCN2CCC(CC2)C(F)(F)c2cccc(c2F)[C@@H](C)N4)CC1 [Compound 162, (4R)-3^2,2,2-trifluoro-6^6-(1-isopropylpiperidin-4-yl)-4-methyl-6^7,6^8-dihydro-5-aza-6(4,8)-pyrido[2,3-d]pyrimidina-1(4,1)-piperidina-3(1,3)-benzenacyclotridecaphan-6^7-one] | < 100 | < 1000 | – | –
C[C@H]1Nc2ncnc3c2cc(C2CCS(=O)(=O)CC2)c(=O)n3CCCCNC(=O)CN2CCC(CC2)C(F)(F)c2cccc1c2 [Compound 118, (4R)-6^6-(1,1-dioxidotetrahydro-2H-thiopyran-4-yl)-2,2-difluoro-4-methyl-6^7,6^8-dihydro-5,11-diaza-6(4,8)-pyrido[2,3-d]pyrimidina-1(4,1)-piperidina-3(1,3)-benzenacyclotridecaphane-6^7,12-dione] | < 100 | < 1000 | – | –
C[C@H]1Nc2ncnc3c2cc(N2CCN(C4CCN(C)CC4)CC2)c(=O)n3CCCCCCCN2CCC(CC2)C(F)(F)c2cccc1c2F [Compound 178, (4R)-3^2,2,2-trifluoro-4-methyl-6^6-(4-(1-methylpiperidin-4-yl)piperazin-1-yl)-6^7,6^8-dihydro-5-aza-6(4,8)-pyrido[2,3-d]pyrimidina-1(4,1)-piperidina-3(1,3)-benzenacyclotridecaphan-6^7-one] | < 100 | < 1000 | – | –
C[C@H]1Nc2ncnc3c2cc(C2CCS(=O)(=O)CC2)c(=O)n3CC(=O)N(C)CCCCN2CCC(CC2)C(F)(F)c2cccc1c2 [Compound 46, (4R)-6^6-(1,1-dioxidotetrahydro-2H-thiopyran-4-yl)-2,2-difluoro-4,9-dimethyl-6^7,6^8-dihydro-5,9-diaza-6(4,8)-pyrido[2,3-d]pyrimidina-1(4,1)-piperidina-3(1,3)-benzenacyclotridecaphane-6^7,8-dione] | < 100 | < 1000 | – | –
C[C@H]1Nc2ncnc3c2cc(N2CCS(=O)(=O)CC2)c(=O)n3CCCCCCCN2CC(C2)CC(F)(F)c2cccc1c2 [Compound 211, (3R)-1^6-(1,1-dioxidothiomorpholino)-5,5-difluoro-3-methyl-1^7,1^8-dihydro-2-aza-1(4,8)-pyrido[2,3-d]pyrimidina-7(3,1)-azetidina-4(1,3)-benzenacyclotetradecaphan-1^7-one] | < 100 | < 1000 | < 50 | < 500
C[C@H]1Nc2ncnc3c2cc(C2(C#N)CC2)c(=O)n3CCCC/C=C\CN2CCC(CC2)C(F)(F)c2cccc1c2 [Compound 159, 1-((4R,Z)-2,2-difluoro-4-methyl-6^7-oxo-6^7,6^8-dihydro-5-aza-6(4,8)-pyrido[2,3-d]pyrimidina-1(4,1)-piperidina-3(1,3)-benzenacyclotridecaphan-11-en-6^6-yl)cyclopropane-1-carbonitrile] | < 100 | < 1000 | < 50 | < 500

From patent US20230339952A1, “MACROCYCLIC HETEROCYCLES AND USES THEREOF” (Kumquat Biosciences Inc., priority 2022, published 2023)
